Reference: paper PMC10229426, “An optimized bioluminescent substrate for non-invasive imaging in the brain” (Nature Chemical Biology, 2023)
Entries after “also recorded” stand apart in the source; their conditions may differ. Like-named read-outs stand apart in the source and are kept apart here.

Tests used:
[1] = parameters: method as in doi:10.1134/S1068162018020085; conditions: cited from earlier work
Antares luciferase [2] = molecular target: T1, Antares luciferase (Oplophorus gracilirostris, UniProt Q9GV45, A31E/A60N/A81I/F95D/I117V/K70R/L54V/L99Q/M102K/N193R/P142E/Q151K/Q38R/Q45L/V71I/Y165I); assay: Bioluminescence imaging of transgenic mice for substrate comparison (brain, Cre-driven Antares); type: in vivo, mouse
T1 construct: expressed in transfected cells; host or cells: transgenic mice with CAG-LSL-Antares at the H11 locus, crossed to Cre driver lines (neurons or liver)
T1 sequence (Q9GV45 other isoform, or with tags, fused parts or gaps with the stated changes): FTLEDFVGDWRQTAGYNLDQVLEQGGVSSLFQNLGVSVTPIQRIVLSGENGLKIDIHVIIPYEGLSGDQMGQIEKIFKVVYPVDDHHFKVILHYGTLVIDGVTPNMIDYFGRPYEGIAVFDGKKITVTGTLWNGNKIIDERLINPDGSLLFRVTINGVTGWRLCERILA
Description: (§1) Transgenic reporter mice with LSL-CAG-luciferase (Antares, FLuc or AkaLuc) inserted at the H11 locus (H11P) were generated by φC31-mediated recombination in blastocysts[48] by the Stanford Transgenic, Knockout and Tumor Model Center. For substrate comparisons, 2- to 4-month-old transgenic mice doubly hemizygous for a Camk2a-cre (Jackson Laboratory, 005359), Vgat-IRES-cre (Jackson Laboratory), Vglut2-IRES-cre (Jackson Laboratory, 016963) or Alb-cre (Jackson Laboratory, 003574) driver and a CAG-LSL-Antares, CAG-LSL-AkaLuc or CAG-LSL-FLuc reporter were anesthetized by inhalation of isoflurane for 5 min. An electric shaver was used to remove scalp hair in Camk2a-cre, Vglut2-IRES-cre or Vgat-IRES-cre mice or abdominal hair in Alb-cre mice. Nair depilatory cream (Church and Dwight) was then applied to the shaved area for 1 min, and remaining hair was removed with a piece of sterile gauze. The area was then rinsed with DPBS and cleaned with 70% ethanol with a piece of sterile gauze.
For mice expressing Antares, indicated amounts of Fz were dissolved in 480 µl of a PEG-300-based formulation consisting of 10% glycerol, 10% ethanol, 10% hydroxypropylcyclodextrin and 35% PEG-300 in water, or indicated amounts of lyophilized Fz analogs with P-407 vehicle were reconstituted in 150–500 µl of DPBS buffer. For mice expressing FLuc, indicated amounts of D-luciferin were dissolved in PBS. For mice expressing AkaLuc, 3 μmol (1.0 mg) of AkaLumine-HCl (Sigma-Aldrich) was dissolved in 150 μl of 0.9% NaCl. Substrates were then injected into the peritoneal cavity in the left lower quadrant, with the maximum injectable volume at 480 µl. Immediately after substrate injection, bioluminescent images were acquired in an Ami HT bioluminescence imaging system running Aura software version 3.1 or 4.0 (Spectral Instruments Imaging) for 15–30 min at intervals of 1 min. For comparing substrates at 1.3 µmol, the following imager settings were used: emission filter open, field of view of 25 cm, f-stop of 1.2, binning of 2 × 2 and exposure time of 2 s. For comparison with >1.3-µmol substrates, the following settings were used: emission filter open, field of view of 25 cm, f-stop of 1.2, binning of 1 × 1 and exposure time of 1 s. Pseudocolor images and intensity scale bars were generated with Aura software. Integrated luminescence was quantified using the Fiji version of the ImageJ program (NIH)[49], with further statistical analysis performed in GraphPad Prism (version 9.0.0).

Antares luciferase [3] = molecular target: T1, Antares luciferase; assay: Non-invasive detection of Antares in the liver (Alb-cre driver); type: in vivo, mouse; conditions: 1.3 µmol i.p.
Description: as §1, with “The area was then rinsed with DPBS and cleaned with 70% ethanol with a piece of sterile gauze.” left out
For mice expressing Antares, indicated amounts of Fz were dissolved in 480 µl of a PEG-300-based formulation consisting of 10% glycerol, 10% ethanol, 10% hydroxypropylcyclodextrin and 35% PEG-300 in water, or indicated amounts of lyophilized Fz analogs with P-407 vehicle were reconstituted in 150–500 µl of DPBS buffer. […] Integrated luminescence was quantified using the Fiji version of the ImageJ program (NIH)[49], with further statistical analysis performed in GraphPad Prism (version 9.0.0).

Antares = Antares (Oplophorus gracilirostris, UniProt Q9GV45, A31E/A60N/A81I/F95D/I117V/K70R/L54V/L99Q/M102K/N193R/P142E/Q151K/Q38R/Q45L/V71I/Y165I); assay: Comparison of bioluminescence in luciferase-transduced (AAV) mouse brain hippocampus; type: in vivo, J:NU mice; parameters: P2A-mNeonGreen (self-cleaving; mNeonGreen is separated and a P2A remnant stays on Antares) (C); expressed in transfected cells; host or cells: hippocampus of J:NU mice transduced with AAV.DJ
Antares, sequence (Q9GV45 other isoform, or with tags, fused parts or gaps with the stated changes): as above
Description: For AAV packaging, pAAV-CMV-AkaLuc-P2A-mNeonGreen-WPRE plasmid and pAAV-CMV-Antares-P2A-mNeonGreen-WPRE were amplified and purified by a PureLink Expi endotoxin-free maxi plasmid purification kit (Invitrogen) and were sent to Stanford Gene Vector and Virus Core to produce and titer AAV.DJ vectors. Under sterile conditions, 12-week-old male J:NU mice (Jackson Laboratory, 007850) were anesthetized with isoflurane and secured in a stereotaxic frame (RWD Life Science), and a hole the size of the needle was drilled through the skull. A Hamilton syringe with a 33-gauge needle was inserted at anteroposterior −2.2 mm, mediolateral +1.7 mm and dorsoventral −1.7 mm. […] The needle was left in place for 3 min after each injection to minimize upward flow of viral solution. Two to 3 weeks after AAV infection, mice were injected i.p. with the indicated amount of CFz, Akalumine or FFz and imaged on the Ami HT (binning of 1 × 1 and exposure time of 10 s).

[4] = Toxicity in mice: necropsy and histopathology; type: in vivo, C57BL/6 mice; parameters: key: 0: absent; 1: minimal accumulation; 2: mild accumulation; 3: moderate accumulation; 4: severe accumulation; conditions: individual mice
Method: (§2) Male C57BL/6 mice of 2 months of age were killed by CO2 asphyxiation and cardiac exsanguination. All mice were weighed, and a complete gross examination of the external and internal organs was performed. […] Formalin-fixed tissues were processed routinely, embedded in paraffin, sectioned at 5 μm and stained with hematoxylin and eosin. All slides were blindly evaluated for histologic treatment-related effects (Supplementary Table 1) by a board-certified veterinary pathologist.

[5] = Toxicity in mice: necropsy and histopathology; type: in vivo, C57BL/6 mice; parameters: key: 0: absent; 1: present; conditions: individual mice
Method: as §2

O=c1c(Cc2ccco2)nc2c(Cc3ccccc3)[nH]c(-c3ccccc3)cn1-2 [Fz, furimazine, reference compound]
toxicity of daily i.v. injection ([1]; 20 µg i.v. per day): minimal toxicity | toxicity of daily i.v. injection ([1]; 60 µg (0.16 µmol) i.v. daily for 7 d): caused liver and lung damage | brain signal distribution (Antares luciferase [2]; Antares driven by Camk2a-cre): expected forebrain-enriched signal | brain signal distribution (Antares luciferase [2]; i.p., CAG-LSL-Antares x Vgat-IRES-cre mice): signal from both the forebrain and hindbrain

O=c1c(Cc2ccco2)nc2c(Cc3ccccc3)[nH]c(-c3cccc(F)c3F)cn1-2 [compound 6, cephalofurimazine]
liver signal, 6 versus FFz (Antares luciferase [3]): threefold dimmer than FFz | peak signal relative to 3.0 µmol of AkaLumine (Antares; 1.3 µmol CFz i.p., Antares and AkaLuc AAV co-infected hippocampus): comparable peak signal | brightness relative to 3 µmol of AkaLumine (Antares; CFz dose 3 µmol i.p., Antares and AkaLuc AAV co-infected hippocampus, listed as CFz): threefold more signal; also recorded: about threefold higher | brightness relative to FFz (Antares; i.p., Antares AAV in hippocampus): brighter than FFz by at least an order of magnitude | KCHMV, Kupffer cell hyperplasia and microvesicular vacuolation score ([4]; 3 days, 4.2 µmol, 20 mg P-407): 2 | KCHMV, Kupffer cell hyperplasia and microvesicular vacuolation score ([4]; 5 days, 1.3 µmol, 12 mg P-407): 2 | brain brightness relative to Fz (Antares luciferase [2]; 1.3 µmol i.p., Antares driven by Vglut2-IRES-cre or Camk2a-cre, listed as CFz): at least 2.5 fold | peak light production in the brain relative to Fz (Antares luciferase [2]; 1.3 μmol i.p., CAG-LSL-Antares x Vgat-IRES-cre): significantly brighter | brain bioluminescence of 4.2 µmol dose relative to 1.3-μmol dose (Antares luciferase [2]; 4.2 µmol CFz with 20 mg P-407, i.p.): 6.5 fold | peak brain signal relative to AkaLuc with AkaLumine (Antares luciferase [2]; Antares with 1.3 µmol CFz vs AkaLuc with 3.0 µmol AkaLumine, i.p., Vgat-cre or Camk2a-cre double hemizygotes, listed as CFz): matches AkaLuc–AkaLumine/TokeOni in brightness; also recorded: comparable peak signal | kinetics of brain signal relative to AkaLuc–AkaLumine (Antares luciferase [2]; Antares–CFz): rise and decay more quickly | signal from the brain relative to D-luciferin with firefly luciferase (Antares luciferase [2]; CFz paired with Antares): greater than 20 fold | HT, heart telangiectasia score ([5]; 1 day, 4.2 µmol, 20 mg P-407): 1 | HPMC, heart perivascular myxomatous change score ([5]; 3 days, 4.2 µmol, 20 mg P-407): 1 | HT, heart telangiectasia score ([5]; 3 days, 4.2 µmol, 20 mg P-407): 1 | HPMC, heart perivascular myxomatous change score ([5]; 5 days, 1.3 µmol, 12 mg P-407): 1 | HT, heart telangiectasia score ([5]; 5 days, 1.3 µmol, 12 mg P-407): 1
